This note sets out measurements from US20240262804A1, “NITROGEN-CONTAINING HETEROCYCLIC KETONES, PREPARATION METHODS AND MEDICINAL USES THEREOF” (Hansoh Bio LLC, priority 2021, published 2024).

bovine cardiac myosin, sequence (Q9BE39 whole entry): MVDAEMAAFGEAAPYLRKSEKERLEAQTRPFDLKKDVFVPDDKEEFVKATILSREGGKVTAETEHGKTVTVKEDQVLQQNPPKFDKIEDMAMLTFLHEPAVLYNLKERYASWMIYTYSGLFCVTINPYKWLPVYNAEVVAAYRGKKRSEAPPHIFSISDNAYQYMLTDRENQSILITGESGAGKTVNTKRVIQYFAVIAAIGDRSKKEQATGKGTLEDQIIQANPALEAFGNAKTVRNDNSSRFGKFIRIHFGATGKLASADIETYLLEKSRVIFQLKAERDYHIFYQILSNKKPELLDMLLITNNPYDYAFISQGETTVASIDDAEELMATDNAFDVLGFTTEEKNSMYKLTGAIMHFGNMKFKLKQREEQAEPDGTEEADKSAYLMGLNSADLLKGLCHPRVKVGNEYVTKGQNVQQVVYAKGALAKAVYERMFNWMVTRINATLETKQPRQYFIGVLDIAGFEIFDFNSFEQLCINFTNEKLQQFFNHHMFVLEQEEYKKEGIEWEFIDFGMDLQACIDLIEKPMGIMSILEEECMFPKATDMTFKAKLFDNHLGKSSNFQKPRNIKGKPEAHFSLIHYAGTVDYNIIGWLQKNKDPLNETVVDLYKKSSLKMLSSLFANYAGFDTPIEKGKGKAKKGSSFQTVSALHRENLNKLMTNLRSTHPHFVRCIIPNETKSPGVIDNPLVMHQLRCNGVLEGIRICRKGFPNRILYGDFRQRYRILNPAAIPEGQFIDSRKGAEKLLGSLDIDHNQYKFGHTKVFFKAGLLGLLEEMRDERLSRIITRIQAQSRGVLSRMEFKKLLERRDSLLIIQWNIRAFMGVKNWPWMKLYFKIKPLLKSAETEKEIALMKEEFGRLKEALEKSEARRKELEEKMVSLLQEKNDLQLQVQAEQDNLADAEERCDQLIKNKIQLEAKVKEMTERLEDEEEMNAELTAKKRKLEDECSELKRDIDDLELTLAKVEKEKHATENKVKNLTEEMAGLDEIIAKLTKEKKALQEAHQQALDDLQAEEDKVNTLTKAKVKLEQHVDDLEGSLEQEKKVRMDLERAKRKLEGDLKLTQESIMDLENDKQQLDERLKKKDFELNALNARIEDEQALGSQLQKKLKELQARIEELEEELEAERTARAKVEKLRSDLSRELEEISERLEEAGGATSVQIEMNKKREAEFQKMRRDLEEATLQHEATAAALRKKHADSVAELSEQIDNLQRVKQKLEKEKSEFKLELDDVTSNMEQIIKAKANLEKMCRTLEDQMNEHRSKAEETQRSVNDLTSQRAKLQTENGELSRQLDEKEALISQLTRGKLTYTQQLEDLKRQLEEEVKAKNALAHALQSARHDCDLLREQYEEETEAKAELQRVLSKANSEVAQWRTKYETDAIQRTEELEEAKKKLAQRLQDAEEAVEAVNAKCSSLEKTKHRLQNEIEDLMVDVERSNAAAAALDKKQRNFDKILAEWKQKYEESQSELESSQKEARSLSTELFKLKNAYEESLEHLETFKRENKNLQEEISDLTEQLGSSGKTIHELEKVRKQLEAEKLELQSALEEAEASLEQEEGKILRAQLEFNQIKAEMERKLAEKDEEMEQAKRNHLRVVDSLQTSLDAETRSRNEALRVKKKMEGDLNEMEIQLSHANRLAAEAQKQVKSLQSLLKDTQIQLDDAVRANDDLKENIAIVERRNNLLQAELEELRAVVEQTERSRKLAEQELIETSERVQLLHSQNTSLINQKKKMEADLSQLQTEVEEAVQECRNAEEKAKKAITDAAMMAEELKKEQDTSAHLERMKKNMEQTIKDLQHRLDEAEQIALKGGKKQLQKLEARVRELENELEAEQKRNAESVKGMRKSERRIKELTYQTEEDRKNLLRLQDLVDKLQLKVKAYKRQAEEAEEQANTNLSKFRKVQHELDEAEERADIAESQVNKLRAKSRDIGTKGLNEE
bovine cardiac myosin, sequence (P85100 whole entry partner): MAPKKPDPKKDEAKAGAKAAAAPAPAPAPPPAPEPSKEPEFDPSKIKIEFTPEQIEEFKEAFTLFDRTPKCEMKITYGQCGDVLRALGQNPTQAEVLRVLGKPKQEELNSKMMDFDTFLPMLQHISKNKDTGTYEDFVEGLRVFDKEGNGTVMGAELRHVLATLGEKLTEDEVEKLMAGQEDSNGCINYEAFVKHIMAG
bovine cardiac myosin, sequence (Q3SZE5 whole entry partner): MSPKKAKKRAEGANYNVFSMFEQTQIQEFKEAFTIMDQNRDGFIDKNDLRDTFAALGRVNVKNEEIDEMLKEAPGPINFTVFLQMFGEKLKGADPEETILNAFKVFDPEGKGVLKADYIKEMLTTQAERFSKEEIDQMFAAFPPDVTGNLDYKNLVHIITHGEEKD

This assay concerns the target bovine cardiac myosin (Bos taurus (Bovine), UniProt Q9BE39). As to the kind of experiment: Myosin inhibitory potency: PK/LDH-coupled ATPase assay on bovine skinned cardiac myofibrils. It counts as biochemical. As to conditions: pCa=6.25, 50 μM ATP, 25° C., read-out: myosin inhibition activity IC50. The method in brief:
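Bovine left-ventricle skinned myofibrils (1 mg/mL) in PM12 buffer pH 6.8 at pCa 6.25, 50 μM ATP, PK/LDH-coupled NADH depletion read at 340 nm, 25 °C.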
Consider `C[C@H](Nc1nc(=O)n([C@H]2CC[C@@H](O)CC2)c(=O)[nH]1)C1CCCCC1` [Example 237], for which the IC50 (as a rule, the concentration that gives 50% inhibition) came out at 4.78 µM.

On to `C[C@H](Nc1nc(=O)n([C@H]2CC[C@H](O)CC2)c(=O)[nH]1)C1CCCCC1` [Example 238], for which the IC50 was found to be 4.28 µM.

As to `COC(=O)N1CCC(n2c(=O)nc(N[C@@H](C)c3cccc(C)c3)[nH]c2=O)CC1` [Example 242], the IC50 came to 1.23 µM.

`CC(=O)N1CCC(n2c(=O)nc(N[C@@H](C)c3cccc(C)c3)[nH]c2=O)CC1` [Example 243]: the IC50 is 0.88 µM.

In the case of `Cc1cccc([C@H](C)Nc2nc(=O)n(C3CCN(S(C)(=O)=O)CC3)c(=O)[nH]2)c1` [Example 244], the IC50 was found to be 1.23 µM.

With `CNC(=O)N1CCC(n2c(=O)nc(N[C@@H](C)c3cccc(C)c3)[nH]c2=O)CC1` [Example 245], the IC50 turned out to be 5.5 µM.

As for `COC(=O)c1ccc([C@H](C)Nc2nc(=O)n(C3CCOCC3)c(=O)[nH]2)cc1` [Example 247], the IC50 stood at 2.42 µM.

Turning to `CC(O)c1cccc([C@H](C)Nc2nc(=O)n(C3CCOCC3)c(=O)[nH]2)c1` (stereo partly drawn) [Example 248], the IC50 is 1.5 µM.

Take `C[C@H](Nc1nc(=O)n(C2CCOCC2)c(=O)[nH]1)c1ccc(S(C)(=O)=O)cc1` [Example 249]: the IC50 was determined as 0.78 µM.

Consider `C[C@H](Nc1nc(=O)n(C2CCOCC2)c(=O)[nH]1)c1cccc(C(O)C2CC2)c1` (stereo partly drawn) [Example 250], for which the IC50 came to 4.03 µM.

For `C[C@H](Nc1nc(=O)n(C2CCOCC2)c(=O)[nH]1)c1ccc(Cl)cc1` [Example 251], the IC50 is 0.95 µM.

Consider `O=c1nc(N[C@H](c2cccc(C3CN(CC(F)(F)F)C3)c2)C(F)F)[nH]c(=O)n1C1CCOCC1` [Example 259], for which the IC50 was found to be 0.45 µM.

In the case of `CC(=O)N1CC(c2cccc([C@@H](Nc3nc(=O)n(C4CCOCC4)c(=O)[nH]3)C(F)F)c2)C1` [Example 260], the IC50 turned out to be 0.2 µM.

As for `CC(C)n1c(=O)nc(N[C@H](c2cccc(C3CN(CC(F)(F)F)C3)c2)C(F)F)[nH]c1=O` [Example 261], the concentration for half-maximal inhibition (IC50) stood at 0.76 µM.

For the compound `CC(C)n1c(=O)nc(N[C@H](c2ccc(F)cc2F)C(F)F)[nH]c1=O` [Example 262], the IC50 came out at 2.96 µM.

For the compound `O=c1nc(N[C@H](c2ccc(F)cc2F)C(F)F)[nH]c(=O)n1C1CCOCC1` [Example 263], the IC50 came to 2.31 µM.

As for `CC(C)n1c(=O)nc(N[C@H](c2cccc(C(C)(C)C#N)c2)C(F)F)[nH]c1=O` [Example 264], the IC50 was 1.37 µM.

For `CC(C)n1c(=O)nc(N[C@H](c2cccc(C(O)C3CC3)c2)C(F)F)[nH]c1=O` (stereo partly drawn) [Example 265], the half-inhibitory concentration (IC50) came to 1.1 µM.

Regarding `CC(O)c1cccc([C@@H](Nc2nc(=O)n(C3CCOCC3)c(=O)[nH]2)C(F)F)c1` (stereo partly drawn) [Example 266], the IC50 is 1.98 µM.

For `CC(O)c1cccc([C@@H](Nc2nc(=O)n(C(C)C)c(=O)[nH]2)C(F)F)c1` (stereo partly drawn) [Example 267], the IC50 came to 0.41 µM.

Consider `CC(C)(C#N)c1cccc([C@@H](Nc2nc(=O)n(C3CCOCC3)c(=O)[nH]2)C(F)F)c1` [Example 268], for which the IC50 turned out to be 1.07 µM.

For `COC[C@H](Nc1nc(=O)n(C2CCOCC2)c(=O)[nH]1)c1ccc(F)cc1F` [Example 269], the IC50 was 1.77 µM.

On to `O=c1nc(N[C@H](c2cccc(Br)c2)C(F)F)[nH]c(=O)n1C1CCOCC1` [Example 270], for which the IC50 was 0.55 µM.

On to `CC(C)n1c(=O)nc(N[C@@H](C)c2cccc([C@@H](C)O)c2)[nH]c1=O` [Example 271], for which the half-inhibitory concentration (IC50) worked out at 0.87 µM.

With `Cc1cc([C@@H](C)Nc2nc(=O)n(C3CCOCC3)c(=O)[nH]2)c(F)cc1F` [Example 272], the IC50 came to 0.37 µM.

On to `CC(=O)N1CC(c2cccc([C@H](C)Nc3nc(=O)n(C4CCOCC4)c(=O)[nH]3)c2)C1` [Example 273], for which the IC50 turned out to be 0.58 µM.

For the compound `C[C@H](Nc1nc(=O)n(C2CCOCC2)c(=O)[nH]1)c1cccc(CC(F)(F)F)c1` [Example 274], the IC50 turned out to be 0.39 µM.

Take `COCC(Nc1nc(=O)n(C(C)C)c(=O)[nH]1)c1cc(C)ccc1F` (stereo not drawn) [Example 275]: the IC50 was determined as 1.81 µM.

With `C[C@H](Nc1nc(=O)n(C2CCOCC2)c(=O)[nH]1)c1cccc(C(C)(C)C#N)c1` [Example 276], the IC50 was found to be 0.15 µM.

Take `CC(C#N)c1cccc([C@H](C)Nc2nc(=O)n(C3CCOCC3)c(=O)[nH]2)c1` (stereo partly drawn) [Example 277]: the IC50 stood at 0.24 µM.

As for `COC[C@@H](Nc1nc(=O)n(C2CCOCC2)c(=O)[nH]1)c1cc(C)ccc1F` [Example 278], the IC50 was found to be 0.63 µM.

Consider `Cc1cccc([C@@H](Nc2nc(=O)n(C3CCOCC3)c(=O)[nH]2)C(F)(F)F)c1` [Example 279], for which the IC50 came out at 0.72 µM.

Take `Cc1cccc([C@H](Nc2nc(=O)n(C3CCOCC3)c(=O)[nH]2)C(F)(F)F)c1` [Example 280]: the IC50 was found to be 2.43 µM.

Turning to `C[C@H](Nc1nc(=O)n([C@H]2CCOC[C@H]2F)c(=O)[nH]1)c1ccc(F)cc1F` [Example 281], the concentration for half-maximal inhibition (IC50) amounted to 2.26 µM.

In the case of `CO[C@H]1COCC[C@@H]1n1c(=O)nc(N[C@@H](C)c2cc(C)ccc2F)[nH]c1=O` [Example 282], the IC50 came out at 0.9 µM.

Turning to `CO[C@@H]1COCC[C@H]1n1c(=O)nc(N[C@@H](C)c2cc(C)ccc2F)[nH]c1=O` [Example 283], the IC50 stood at 1.09 µM.

`Cc1cccc([C@H](Nc2nc(=O)n(C3CCOCC3)c(=O)[nH]2)C(F)F)c1` [Example 284]: the IC50 came to 0.29 µM.

`COC[C@H](Nc1nc(=O)n(C(C)C)c(=O)[nH]1)c1cccc(C)c1` [Example 285]: the half-maximal inhibitory concentration (IC50) was 0.51 µM.

For `C[C@H](Nc1nc(=O)n(C2CCOCC2)c(=O)[nH]1)c1cccc([C@@H](C)O)c1` [Example 286], the IC50 came to 0.24 µM.

With `CC(C)[C@@H](O)c1cccc([C@H](C)Nc2nc(=O)n(C3CCOCC3)c(=O)[nH]2)c1` [Example 287], the IC50 is 0.54 µM.

Take `C[C@H](Nc1nc(=O)n(C2CCOCC2)c(=O)[nH]1)c1cccc(C2CN(CC(F)(F)F)C2)c1` [Example 288]: the IC50 is 0.36 µM.

With `CC(=O)N1CCC(c2cccc([C@H](C)Nc3nc(=O)n(C(C)C)c(=O)[nH]3)c2)CC1` [Example 289], the IC50 was 1.8 µM.

For `C[C@H](Nc1nc(=O)n(C2CCOCC2)c(=O)[nH]1)c1cccc(C2CCN(CC(F)(F)F)CC2)c1` [Example 290], the IC50 is 2.21 µM.

On to `C[C@H](Nc1nc(=O)n(C2CCOCC2)c(=O)[nH]1)c1cccc([C@H](O)C(F)(F)F)c1` [Example 291], for which the IC50 stood at 0.85 µM.

For `CCC(Nc1nc(=O)n(C2CCOCC2)c(=O)[nH]1)c1cccc(C)c1` (stereo not drawn) [Example 292], the half-inhibitory concentration (IC50) was 0.91 µM.

As to `CC(C)n1c(=O)nc(N[C@@H](C)c2cccc(C3CCNCC3)c2)[nH]c1=O` [Example 293], the IC50 is 2.81 µM.

For the compound `COC[C@H](Nc1nc(=O)n(C2CCOCC2)c(=O)[nH]1)c1cccc(C)c1` [Example 294], the IC50 was found to be 0.88 µM.

As to `CC(C)n1c(=O)nc(N[C@@H](C)c2cccc(C3CCOCC3)c2)[nH]c1=O` [Example 295], the IC50 was 1.36 µM.

As for `Cc1cc([C@H](C)Nc2nc(=O)n([C@@H]3CCOC[C@@H]3F)c(=O)[nH]2)ccc1F` [Example 296], the IC50 came out at 0.86 µM.

As to `Cc1cc([C@H](C)Nc2nc(=O)n([C@H]3CCOC[C@H]3F)c(=O)[nH]2)ccc1F` [Example 297], the IC50 was found to be 1.59 µM.

In the case of `C[C@H](Nc1nc(=O)n(C2CCOCC2)c(=O)[nH]1)c1ccc2c(c1)OC(F)(F)O2` [Example 298], the IC50 was 0.88 µM.

In the case of `CO[C@@H]1COCC[C@H]1n1c(=O)nc(N[C@@H](C)c2cccc(C)c2)[nH]c1=O` [Example 299], the concentration for half-maximal inhibition (IC50) stood at 1.18 µM.

For the compound `C[C@H](Nc1nc(=O)n(C2CCN(CCF)CC2)c(=O)[nH]1)C1CCCCC1` [Example 300], the IC50 amounted to 2.29 µM.

Regarding `Cc1cccc([C@H](C)Nc2nc(=O)n(C3CCN(CCF)CC3)c(=O)[nH]2)c1` [Example 301], the IC50 was determined as 0.8 µM.

As to `Cc1ccc(F)c([C@H](C)Nc2nc(=O)n([C@H](C)C(F)(F)F)c(=O)[nH]2)c1` [Example 302], the IC50 came to 0.88 µM.

With `Cc1ccc(F)c([C@H](C)Nc2nc(=O)n([C@H](C3CC3)C(F)(F)F)c(=O)[nH]2)c1` [Example 303], the IC50 is 0.56 µM.

Regarding `COC[C@H](Nc1nc(=O)n(C2CCOCC2)c(=O)[nH]1)c1ccccc1` [Example 304], the IC50 is 1.78 µM.

In the case of `Cc1cc([C@H](C)Nc2nc(=O)n(C(C)C)c(=O)[nH]2)ccc1F` [Example 305], the IC50 turned out to be 0.95 µM.

As for `C[C@@H](Nc1nc(=O)n(C2CCOCC2)c(=O)[nH]1)c1cccc(C2CC2)c1` [Example 306], the IC50 is 1.22 µM.

`CC(C)n1c(=O)nc(N[C@@H](C)c2cccc(C(C)(C)O)c2)[nH]c1=O` [Example 307]: the IC50 is 1.87 µM.

With `CC(C)c1cccc([C@H](C)Nc2nc(=O)n(C3CCOCC3)c(=O)[nH]2)c1` [Example 308], the IC50 is 1 µM.

`C[C@H](Nc1nc(=O)n([C@@H]2CCOC[C@@H]2F)c(=O)[nH]1)c1cccc(C(F)(F)F)c1` [Example 309]: the IC50 came out at 1.61 µM.

Consider `C[C@H](Nc1nc(=O)n([C@H]2CCOC[C@H]2F)c(=O)[nH]1)c1cccc(C(F)(F)F)c1` [Example 310], for which the IC50 was 1.49 µM.

Regarding `Cc1ccc(F)c([C@H](C)Nc2nc(=O)n([C@@H](C)C(F)(F)F)c(=O)[nH]2)c1` [Example 311], the IC50 was found to be 2.36 µM.

Consider `Cc1ccc(F)c([C@H](C)Nc2nc(=O)n([C@@H](C3CC3)C(F)(F)F)c(=O)[nH]2)c1` [Example 312], for which the IC50 was 1.44 µM.

As for `Cc1ccc(F)c([C@H](C)Nc2nc(=O)n([C@@H]3CCOC[C@@H]3F)c(=O)[nH]2)c1` [Example 313], the 50% inhibitory concentration (IC50) is 1.37 µM.

As to `Cc1ccc(F)c([C@H](C)Nc2nc(=O)n([C@H]3CCOC[C@H]3F)c(=O)[nH]2)c1` [Example 314], the IC50 is 0.77 µM.

As to `Cc1cccc([C@H](C)Nc2nc(=O)n([C@@H]3CCOC[C@@H]3F)c(=O)[nH]2)c1` [Example 315], the IC50 came out at 1.47 µM.

Turning to `Cc1cccc([C@H](C)Nc2nc(=O)n([C@H]3CCOC[C@H]3F)c(=O)[nH]2)c1` [Example 316], the IC50 was determined as 1.23 µM.
